Test results as given in PubChem BioAssay AID1963866 (Molecular Pharmacology Branch, DTP, NCI, 2024).

System: PDC KRAS tumor spheroids with HUVEC/MSC, viability
Assay: Anticancer human tumor 349418-098-R-PDC patient-derived lung adenocarcinoma cell line growth inhibition [KRAS2]
Conditions: for viability, T/C: stronger effect = lower value; active means viability on the fitted dose curve at most 10% of control; inactive means the rest
Procedure, shortened: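 KRAS-mutant tumor cells were grown as spheroids with HUVEC endothelial cells and human MSCs as stroma. Targeted agents were tested alone and with KRAS pathway inhibitors. Doses started at or near clinical Cmax, or 10 microM, descending half-log.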

[1] = curve of first compound, second compound 0.1 µM
[2] = curve of first compound, second compound 0.316 µM
[3] = curve of first compound, second compound 1 µM
[4] = curve of first compound, second compound 3.16 µM
[5] = curve of first compound, second compound 10 µM
[6] = second compound 0.1 µM, first compound 0.01 µM
[7] = second compound 0.1 µM, first compound 0.0316 µM
[8] = second compound 0.1 µM, first compound 0.1 µM
[9] = second compound 0.316 µM, first compound 0.01 µM
[10] = second compound 0.316 µM, first compound 0.0316 µM
[11] = second compound 0.316 µM, first compound 0.1 µM
[12] = second compound 1 µM, first compound 0.01 µM
[13] = second compound 1 µM, first compound 0.0316 µM
[14] = second compound 1 µM, first compound 0.1 µM
[15] = second compound 3.16 µM, first compound 0.01 µM
[16] = second compound 3.16 µM, first compound 0.0316 µM
[17] = second compound 3.16 µM, first compound 0.1 µM
[18] = second compound 10 µM, first compound 0.01 µM
[19] = second compound 10 µM, first compound 0.0316 µM
[20] = second compound 10 µM, first compound 0.1 µM
[21] = second compound 0.1 µM, first compound 0.316 µM
[22] = second compound 0.1 µM, first compound 1 µM
[23] = second compound 0.1 µM, first compound 3.16 µM
[24] = second compound 0.1 µM, first compound 10 µM
[25] = second compound 0.316 µM, first compound 0.316 µM
[26] = second compound 0.316 µM, first compound 1 µM
[27] = second compound 0.316 µM, first compound 3.16 µM
[28] = second compound 0.316 µM, first compound 10 µM
[29] = second compound 1 µM, first compound 0.316 µM
[30] = second compound 1 µM, first compound 1 µM
[31] = second compound 1 µM, first compound 3.16 µM
[32] = second compound 1 µM, first compound 10 µM
[33] = second compound 3.16 µM, first compound 0.316 µM
[34] = second compound 3.16 µM, first compound 1 µM
[35] = second compound 3.16 µM, first compound 3.16 µM
[36] = second compound 3.16 µM, first compound 10 µM
[37] = second compound 10 µM, first compound 0.316 µM
[38] = second compound 10 µM, first compound 1 µM
[39] = second compound 10 µM, first compound 3.16 µM
[40] = second compound 10 µM, first compound 10 µM
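Further: spheroids exposed to compounds for seven days before readout.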

CN(C)C/C=C/C(=O)Nc1cc2c(Nc3ccc(F)c(Cl)c3)ncnc2cc1O[C@H]1CCOC1 + C=CC(=O)N1CCN(c2nc(=O)n(-c3c(C)ccnc3C(C)C)c3nc(-c4c(O)cccc4F)c(F)cc23)C(C)C1
inactive: viability, T/C (second compound 0.1 µM, first compound 0.000316 µM) 104% | viability, T/C (second compound 0.1 µM, first compound 0.001 µM) 97.8% | viability, T/C (second compound 0.1 µM, first compound 0.00316 µM) 98.7% | viability, T/C [6] 83.3% | viability, T/C [7] 99.1% | viability, T/C [8] 94% | viability, T/C (second compound 0.316 µM, first compound 0.000316 µM) 96.6% | viability, T/C (second compound 0.316 µM, first compound 0.001 µM) 106% | viability, T/C (second compound 0.316 µM, first compound 0.00316 µM) 95.1% | viability, T/C [9] 91.7% | viability, T/C [10] 100% | viability, T/C [11] 87.5% | viability, T/C (second compound 1 µM, first compound 0.000316 µM) 90.6% | viability, T/C (second compound 1 µM, first compound 0.001 µM) 85.6% | viability, T/C (second compound 1 µM, first compound 0.00316 µM) 81% | viability, T/C [12] 95.3% | viability, T/C [13] 80.5% | viability, T/C [14] 78.2% | viability, T/C (second compound 3.16 µM, first compound 0.000316 µM) 78% | viability, T/C (second compound 3.16 µM, first compound 0.001 µM) 68.4% | viability, T/C (second compound 3.16 µM, first compound 0.00316 µM) 83.8% | viability, T/C [15] 59.5% | viability, T/C [16] 55.2% | viability, T/C [17] 64.9% | viability, T/C (second compound 10 µM, first compound 0.000316 µM) 40.9% | viability, T/C (second compound 10 µM, first compound 0.001 µM) 40.2% | viability, T/C (second compound 10 µM, first compound 0.00316 µM) 35.9% | viability, T/C [18] 32.3% | viability, T/C [19] 27.5% | viability, T/C [20] 32.6%
> 100 nM: IC50 [1] | IC50 [2] | IC50 [3] | IC50 [4]
< 0.316 nM: IC50 [5]

CC1OCC2(CCN(c3cnc(Sc4ccnc(N)c4Cl)c(N)n3)CC2)C1N (stereo not drawn) + CNCc1ccccc1-c1csc(C(C)Nc2nc(C)nc3cc(OC)c(OC)cc23)c1
> 10000 nM: IC50 [1] | IC50 [2]
< 31.6 nM: IC50 [3] | IC50 [4] | IC50 [5]
active: viability, T/C [16] 0.05% | viability, T/C [17] 0.07% | viability, T/C [33] 0.06% | viability, T/C [34] 0.41% | viability, T/C [35] 0.12% | viability, T/C [36] 0.17% | viability, T/C [19] 0.06% | viability, T/C [20] 0.07% | viability, T/C [37] 0.06% | viability, T/C [38] 0.35% | viability, T/C [39] 0.07% | viability, T/C [40] 0.12%
inactive: viability, T/C [7] 84.7% | viability, T/C [8] 98.9% | viability, T/C [21] 65% | viability, T/C [22] 103% | viability, T/C [23] 111% | viability, T/C [24] 88.3% | viability, T/C [10] 103% | viability, T/C [11] 91.1% | viability, T/C [25] 109% | viability, T/C [26] 88.2% | viability, T/C [27] 88.4% | viability, T/C [28] 72.9% | viability, T/C [13] 42.8% | viability, T/C [14] 35.4% | viability, T/C [29] 34% | viability, T/C [30] 46.8% | viability, T/C [31] 50.6% | viability, T/C [32] 16.5%

C=CC(=O)N1CCN(c2nc(=O)n(-c3c(C)ccnc3C(C)C)c3nc(-c4c(O)cccc4F)c(F)cc23)C(C)C1 (stereo not drawn)
5.54 µM [middle of 5 runs]: IC50 (compound alone, run of 07/19/2021)
6.3 µM [middle of 6 runs]: IC50 (compound alone, run of 07/26/2021)
inactive: viability, T/C (compound 10 µM) 37.2% [middle of 17 runs]

CC1COCCN1c1cc(-c2ccnn2C)c2ccnc(-c3ccn[nH]3)c2n1 (stereo not drawn) + CC1OCC2(CCN(c3cnc(Sc4ccnc(N)c4Cl)c(N)n3)CC2)C1N
26.9 nM: IC50 [2]
37.4 nM: IC50 [4]
active: viability, T/C [8] 9.73% | viability, T/C [21] 7% | viability, T/C [22] 4.41% | viability, T/C [23] 4.8% | viability, T/C [11] 9.52% | viability, T/C [25] 7.35% | viability, T/C [26] 4.82% | viability, T/C [27] 4.26% | viability, T/C [29] 7.13% | viability, T/C [30] 5.99% | viability, T/C [31] 4.5% | viability, T/C [33] 6.94% | viability, T/C [34] 4.63% | viability, T/C [35] 4.81% | viability, T/C [20] 9.52% | viability, T/C [37] 5.38% | viability, T/C [38] 4.95% | viability, T/C [39] 4.71%
30.4 nM: IC50 [1]
37.8 nM: IC50 [3]
25.4 nM: IC50 [5]
inactive: viability, T/C [6] 98.1% | viability, T/C [7] 48.2% | viability, T/C [9] 115% | viability, T/C [10] 39.4% | viability, T/C [12] 117% | viability, T/C [13] 56.9% | viability, T/C [14] 12.2% | viability, T/C [15] 97.7% | viability, T/C [16] 56.8% | viability, T/C [17] 10.1% | viability, T/C [18] 89.6% | viability, T/C [19] 40.6%

COC(=O)c1ccc2c(C(=Nc3ccc(N(C)C(=O)CN4CCN(C)CC4)cc3)c3ccccc3)c(O)[nH]c2c1 + C=CC(=O)N1CCN(c2nc(OCC3CCCN3C)nc3c2CCN(c2cccc4cccc(C)c24)C3)CC1CC#N
< 31.6 nM: IC50 [3] | IC50 [4]
456 nM: IC50 (curve of first compound, second compound 0.0316 µM)
320 nM: IC50 [1]
154 nM: IC50 [2]
inactive: viability, T/C (second compound 0.0316 µM, first compound 0.0316 µM) 65.9% | viability, T/C (second compound 0.0316 µM, first compound 0.1 µM) 78.3% | viability, T/C (second compound 0.0316 µM, first compound 0.316 µM) 58.5% | viability, T/C (second compound 0.0316 µM, first compound 1 µM) 28.9% | viability, T/C (second compound 0.0316 µM, first compound 3.16 µM) 15.6% | viability, T/C (second compound 0.0316 µM, first compound 10 µM) 15% | viability, T/C [7] 88.9% | viability, T/C [8] 87.6% | viability, T/C [21] 46.3% | viability, T/C [22] 25.4% | viability, T/C [23] 9.49% | viability, T/C [24] 9.82% | viability, T/C [10] 75.2% | viability, T/C [11] 51% | viability, T/C [25] 42.3% | viability, T/C [26] 30.4% | viability, T/C [27] 10.6% | viability, T/C [13] 44.8% | viability, T/C [14] 24.2% | viability, T/C [29] 27.8% | viability, T/C [30] 23.8%
active: viability, T/C [28] 6.76% | viability, T/C [31] 0.91% | viability, T/C [32] 0.96% | viability, T/C [16] 0.1% | viability, T/C [17] 0.08% | viability, T/C [33] 0.07% | viability, T/C [34] 0.05% | viability, T/C [35] 0.03% | viability, T/C [36] 0.05%

COc1cc2nccc(Oc3ccc(NC(=O)C4(C(=O)Nc5ccc(F)cc5)CC4)cc3)c2cc1OC + CNCc1ccccc1-c1csc(C(C)Nc2nc(C)nc3cc(OC)c(OC)cc23)c1
1640 nM: IC50 [2]
1570 nM: IC50 [1]
596 nM: IC50 [3]
active: viability, T/C [31] 0.88% | viability, T/C [32] 1.04% | viability, T/C [16] 0.14% | viability, T/C [17] 0.09% | viability, T/C [33] 0.12% | viability, T/C [34] 0.04% | viability, T/C [35] 0.12% | viability, T/C [36] 0.08% | viability, T/C [19] 0.08% | viability, T/C [20] 0.07% | viability, T/C [37] 0.08% | viability, T/C [38] 0.24% | viability, T/C [39] 0.07% | viability, T/C [40] 0.13%
inactive: viability, T/C [7] 101% | viability, T/C [8] 99.5% | viability, T/C [21] 95.4% | viability, T/C [22] 73.3% | viability, T/C [23] 9.71% | viability, T/C [24] 18.6% | viability, T/C [10] 97.4% | viability, T/C [11] 95% | viability, T/C [25] 85.5% | viability, T/C [26] 79.6% | viability, T/C [27] 7.07% | viability, T/C [28] 14.3% | viability, T/C [13] 95.4% | viability, T/C [14] 93.9% | viability, T/C [29] 78.4% | viability, T/C [30] 26.9%
< 31.6 nM: IC50 [4] | IC50 [5]

Cn1nccc1Nc1nccc(-c2cc3c(s2)C(C)(C)N(CCN2CCOCC2)C3=O)n1 + COc1cc2nc(C)nc(NC(C)c3cc(N)cc(C(F)(F)F)c3)c2cc1OC1CCOC1
< 31.6 nM: IC50 [4] | IC50 [5]
36.3 nM: IC50 [3]
37.4 nM: IC50 [2]
active: viability, T/C [22] 7.65% | viability, T/C [23] 6.07% | viability, T/C [24] 4.14% | viability, T/C [25] 12.2% | viability, T/C [26] 6.27% | viability, T/C [27] 6.54% | viability, T/C [28] 4.93% | viability, T/C [29] 8.8% | viability, T/C [30] 7.31% | viability, T/C [31] 5.44% | viability, T/C [32] 4.32% | viability, T/C [33] 7.42% | viability, T/C [34] 5.91% | viability, T/C [35] 4.66% | viability, T/C [36] 4.79% | viability, T/C [20] 7.62% | viability, T/C [37] 4.31% | viability, T/C [38] 3.93% | viability, T/C [39] 2.92% | viability, T/C [40] 2.13%
52.4 nM: IC50 [1]
inactive: viability, T/C [7] 71.1% | viability, T/C [8] 22.4% | viability, T/C [21] 12.5% | viability, T/C [10] 55.6% | viability, T/C [11] 19% | viability, T/C [13] 53.4% | viability, T/C [14] 24.2% | viability, T/C [16] 41.8% | viability, T/C [17] 19.1% | viability, T/C [19] 15.1%
